From US6143780A, “N-arylmethylthioanilide compounds useful for the inhibition of the replication of HIV” (Uniroyal Chemical Company, Inc., priority 1999, dated 2000)
Converted amounts (≈) assume the structure as drawn. “And” between values parts separate entries of the source, which are not always exact repeats. Identical values can stand only once. Like-named read-outs stand apart in the source and are kept apart here.

Tests used:
Assay type in all cases: cell-based
HIV-1 (IIIB) = assay: inhibition of HIV-1(IIIB) (WT) induced syncytium formation in CEM cells
Excerpt: (§1) CEM cells were obtained from the American Tissue Cell Culture Collection (Rockville, Md.) . HIV-1 (IIIB) was originally obtained from the culture supernatant of persistently HIV-1-infected H9 cells and was provided by R. C. Gallo and M. Popovic (National Cancer Institute, National Institutes of Health, Bethesda, Md.).
(§2) CEM cells were suspended at ≈300,000 cells per ml of culture medium and infected with approximately 100 CCID50 (CCID50 being the 50% cell culture infective dose) of HIV-1(IIIB) (designated as "WT" in Table 3) or one of the HIV-1 RT mutant strains described above. Then 100 μl of the infected cell suspensions was added to 200 μl microtiter plate wells containing 100 μl of appropriate serial (5-fold) dilutions of the test compounds. The inhibitiory effect of the test compounds on HIV-1 induced syncytium formation in CEM cells was examined microscopically on day 4 post infection. The 50% effective concentration (EC50) was defined as the test compound concentration that inhibits syncytium formation in the HIV-1-infected cell cultures by 50%.

HIV-1/100-Ile = assay: inhibition of syncytium formation in CEM cells, HIV-1 RT mutant 100-Ile; settings: Human immunodeficiency virus 1, CCRF-CEM, 96 h, read-out: EC50 100-Ile
Excerpt: as §1
(§3) The selection and characterization of the HIV-1 RT mutant strains were done as follows: HIV-1/100-Ile ("100-Ile") was selected for resistance against TIBO R82150 as described in Balzarini et al, Virology 192: 246-253 (1993); HIV-1/103-Asn ("103-Asn") was selected for resistance against TIBO R82913 as described in Balzarini et al, Virology 192: 246-253 (1993); HIV-1/106-Ala ("106-Ala") was selected for resistance against nevirapine as described in Balzarini et al, J. Virol. 67: 5353-5359 (1993); HIV-1/Lys-138 ("Lys-138") was selected for resistance against TSAO-m^3T as described in Balzarini et al, Virology 192: 246-253 (1993) and Balzarini et al, Proc. Nat. Acad. Sci. USA 90: 6952-6956 (1993); HIV-1/181-Cys ("181-Cys") was selected for resistance against pyridinone L-697,661 as described in Balzarini et al, Virology 192: 246-253 (1993); and HIV-1/188-His ("188-His") was selected for resistance against HEPT as described in Balzarini et al, Mol. Pharmocol. 44: 694-701 (1993). 188-His was then further converted to HIV-1/188-Leu ("188-Leu") upon further passage in cell culture in the absence of the HEPT. HIV-1/101-Glu ("101-Glu") and HIV-1/190-Glu ("190-Glu") were selected for resistance against the thiocarboxanilide derivative designated as UC38 as described in Balzarini et al, Antiviral Research 27: 219-236 (1995). HIV-1/184-Ile ("184-Ile") was selected for resistance against the combination of 3TC and TSAO-m^3 T as described in Balzarini et al, Molecular Pharm. 49: 882-890 (1996). HIV-1/184-Val ("184-Val") was selected for resistance against 3TC as described in Balzarini et al, Molecular Pharm. 49: 882-890 (1996).
as §2

HIV-1/101-Glu = assay: inhibition of syncytium formation in CEM cells, HIV-1 RT mutant 101-Glu; settings: Human immunodeficiency virus 1, CCRF-CEM, 96 h, read-out: EC50 101-Glu
Excerpt: as §1, §3, §2

103-Ala = assay: inhibition of syncytium formation in CEM cells, HIV-1 RT mutant 103-Ala; settings: Human immunodeficiency virus 1, CCRF-CEM, 96 h, read-out: EC50 103-Ala
HIV-1/106-Ala = assay: inhibition of syncytium formation in CEM cells, HIV-1 RT mutant 106-Ala; settings: Human immunodeficiency virus 1, CCRF-CEM, 96 h, read-out: EC50 106-Ala
Excerpt: as §1, §3, §2

138-Lys = assay: inhibition of syncytium formation in CEM cells, HIV-1 RT mutant 138-Lys; settings: Human immunodeficiency virus 1, CCRF-CEM, 96 h, read-out: EC50 138-Lys
Excerpt: as §1, §3, §2

HIV-1/181-Cys = assay: inhibition of syncytium formation in CEM cells, HIV-1 RT mutant 181-Cys; settings: Human immunodeficiency virus 1, CCRF-CEM, 96 h, read-out: EC50 181-Cys
Excerpt: as §1, §3, §2

HIV-1/184-Ile = assay: inhibition of syncytium formation in CEM cells, HIV-1 RT mutant 184-Ile; settings: Human immunodeficiency virus 1, CCRF-CEM, 96 h, read-out: EC50 184-IIe
Excerpt: as §1, §3, §2

HIV-1/184-Val = assay: inhibition of syncytium formation in CEM cells, HIV-1 RT mutant 184-Val; settings: Human immunodeficiency virus 1, CCRF-CEM, 96 h, read-out: EC50 184-Val
Excerpt: as §1, §3, §2

HIV-1/188-His = assay: inhibition of syncytium formation in CEM cells, HIV-1 RT mutant 188-His; settings: Human immunodeficiency virus 1, CCRF-CEM, 96 h, read-out: EC50 188-His
Excerpt: as §1, §3, §2

HIV-1/188-Leu = assay: inhibition of syncytium formation in CEM cells, HIV-1 RT mutant 188-Leu; settings: Human immunodeficiency virus 1, CCRF-CEM, 96 h, read-out: EC50 188-Leu
Excerpt: as §1, §3, §2

HIV-1/190-Glu = assay: inhibition of syncytium formation in CEM cells, HIV-1 RT mutant 190-Glu; settings: Human immunodeficiency virus 1, CCRF-CEM, 96 h, read-out: EC50 190-Glu
Excerpt: as §1, §3, §2

[1] = Human immunodeficiency virus 1, IIIB, CCRF-CEM, 96 h, Table 3, HIV-1(IIIB), day 4 post infection, read-out: EC50 WT
[2] = Table 2, day 4 post infection, replicate values, read-out: EC50, Activity Against HIV-1 (IIIB)
[3] = Human immunodeficiency virus 1, IIIB, CCRF-CEM, 96 h, Table 2, day 4 post infection, replicate values, read-out: EC50, Activity Against HIV-1 (IIIB)

Structure (SMILES)	EC50 (HIV-1 (IIIB); [1]) [µg/mL]	EC50 (HIV-1 (IIIB); [2])	EC50 (HIV-1/100-Ile) [µg/mL]	EC50 (HIV-1/101-Glu) [µg/mL]	EC50 (103-Ala) [µg/mL]	EC50 (HIV-1/106-Ala) [µg/mL]	EC50 (138-Lys) [µg/mL]	EC50 (HIV-1/181-Cys) [µg/mL]	EC50 (HIV-1/184-Ile) [µg/mL]	EC50 (HIV-1/184-Val) [µg/mL]	EC50 (HIV-1/188-His) [µg/mL]	EC50 (HIV-1/188-Leu) [µg/mL]	EC50 (HIV-1/190-Glu) [µg/mL]	EC50 (HIV-1 (IIIB); [3]) [nM]
CCc1ccccc1OCc1cc(NC(=S)c2ccoc2C)ccc1Cl [Compound 44]	0.0065	30.7 nM and 18 nM and 95.4 nM	0.41	0.65	> 2	1.1	0.16	> 2	0.04	0.018	0.25	0.35	> 2	
Cc1occc1C(=S)Nc1ccc(Cl)c(COc2ccccc2F)c1 [Compound 18]	0.0053	111 nM	0.077	0.24	> 2	1.1	0.53	0.1	0.032	0.008	1.73	> 2	> 2	117
Cc1occc1C(=S)Nc1ccc(Cl)c(COc2c(F)ccc(F)c2F)c1 [Compound 45]	0.0017		0.11	0.04	0.4 (≈ 0.971 µM)	0.025	0.012	0.065	0.005	0.0027	0.85	1.5	> 2	
Cc1occc1C(=S)Nc1ccc(Cl)c(COc2cccc([N+](=O)[O-])c2)c1 [Compound 27]	0.03	121 nM and 340 nM	0.7	0.55	> 2	1.57	0.23	0.5	0.11	0.4	> 2	> 2	> 2	
Cc1occc1C(=S)Nc1ccc(Cl)c(COc2ccc(F)cc2)c1 [Compound 11]	0.065	85.1 nM and 161 nM and 276 nM	0.95	≥ 2	> 2	1.1	0.7	0.14	0.16	0.045	> 2	≥ 2	≥ 2	
CC(=O)OCc1ccccc1OCc1cc(NC(=S)c2ccoc2C)ccc1Cl [Compound 15]	0.49		> 2	> 2	> 2	> 2	> 2	> 2	1.2	0.5	> 2	> 2	≥ 2	
Cc1ccc(Cl)c(OCc2cc(NC(=S)c3ccoc3C)ccc2Cl)c1 [Compound 37]	0.025	19.2 nM and 76.6 nM	2.33	1.4	> 2	> 2	0.33	> 2	0.14	0.09	0.33	0.62	> 2	
Cc1occc1C(=S)Nc1ccc(Cl)c(COc2ccccc2[N+](=O)[O-])c1 [Compound 19]	0.0023	39.3 nM	0.08	0.17	0.52 (≈ 1.29 µM)	0.13	0.0075	0.13	0.0045	0.0041	0.12	1.35	> 2	27.1
Cc1occc1C(=S)Nc1ccc(Cl)c(COc2c(F)cccc2F)c1 [Compound 16]	0.0031	39.2 nM	0.08	0.069	0.6 (≈ 1.52 µM)	0.03	0.018	0.03	0.011	0.0036	0.52	0.95	> 2	28.6
CCCc1ccccc1OCc1cc(NC(=S)c2ccoc2C)ccc1Cl [Compound 43]	0.03	42.5 nM and 118 nM	1.14	1.35	> 2	> 2	0.31	> 0.4	0.13	0.04	0.65	> 2	> 2	
